Data published in patent publication EP0926242A1, “GLIOTOXIN DERIVATIVES AND ANTICANCER AGENT COMPRISING THE SAME” (priority 1996, dated 1998).
In brackets after ≈: the same amount, converted by molar mass.

Columns and labels:
[1] = tested on: various cancer cells; assay: Judgement of apoptosis by DAPI nucleus staining; format: cell-based; conditions: agglomeration of chromosomes, fluorescence microscope
Protocol: Antitumor activity of acetylgliotoxin against various cancer cells was measured by the MTT method. Various cancer cells were adjusted to 4.0 × 10^4 cells/mL by using a medium (hereinafter referred to as medium A) composed of RPMI 1640 medium (GIBCO) containing 10% fetal calf serum, and each 0.1 mL of the cancer cells was pipetted into each well of a 96 well microtiter plate. The plate was incubated in a carbon dioxide gas incubator at 37 °C for 20 hours, and each 0.025 mL of samples (test compounds) suitably diluted with the medium A was added. Then, incubation was further carried out in the carbon dioxide gas incubator at 37 °C for 72 hours. […] Produced crystals were dissolved, and absorbance at 570 nm was measured by a microplate reader. […] Apoptosis was determined by incubating the plate in the carbon dioxide gas incubator at 37 °C for 20 hours, adding each 0.025 mL of samples (test compounds) suitably diluted with the medium A, incubating in the carbon dioxide gas incubator at 37 °C for 72 hours, according to the above method, adding nucleus-staining fluorescent dye DAPI (4,6 - diaminodino-2-henylindole) to each well so as to become 0.5 ng/mL, and after leaving at room temperature for 10 minutes, confirming agglomeration of chromosomes by using a fluorescence microscope.

[2] = tested on: P388 (mouse leukemia ); assay: Cytotoxity of acetylgliotoxin by the MTT method; format: cell-based; conditions: P388, 72 hours
Protocol: (§1) Antitumor activity of acetylgliotoxin against various cancer cells was measured by the MTT method. Various cancer cells were adjusted to 4.0 × 10^4 cells/mL by using a medium (hereinafter referred to as medium A) composed of RPMI 1640 medium (GIBCO) containing 10% fetal calf serum, and each 0.1 mL of the cancer cells was pipetted into each well of a 96 well microtiter plate. The plate was incubated in a carbon dioxide gas incubator at 37 °C for 20 hours, and each 0.025 mL of samples (test compounds) suitably diluted with the medium A was added. Then, incubation was further carried out in the carbon dioxide gas incubator at 37 °C for 72 hours. Each 0.01 mL of the MTT solution adjusted to 5 mg/mL by using Dulbecco's PBS (-) (Nissui) was added thereto, and incubated in the carbon dioxide gas incubator at 37 °C for 3 hours. Subsequently, each 0.05 mL of 0.01 N HCl/20 % SDS was added. Produced crystals were dissolved, and absorbance at 570 nm was measured by a microplate reader. By comparing the absorbance of the cells treated with the sample in the known concentration with that of non-treated cells, the sample concentration which inhibits multiplication of the cells at the rate of 50% (IC50) was calculated. Apoptosis was determined by incubating the plate in the carbon dioxide gas incubator at 37 °C for 20 hours, adding each 0.025 mL of samples (test compounds) suitably diluted with the medium A, incubating in the carbon dioxide gas incubator at 37 °C for 72 hours, according to the above method, adding nucleus-staining fluorescent dye DAPI (4,6 - diaminodino-2-henylindole) to each well so as to become 0.5 ng/mL, and after leaving at room temperature for 10 minutes, confirming agglomeration of chromosomes by using a fluorescence microscope.
(§2) Human leukemia cells (K 562 : Dainippon Seiyaku), human carcinoma cells of the colon (HCT-15, HCT-116, SW946: Dainippon Seiyaku), human leukemia cells (U 937: Dainippon Seiyaku), human lung cancer cells (LX-1: Biseibutsu Kagaku Kenkyu-sho), mouse leukemia cells (P 388 : Dainippon Seiyaku), mouse carcinoma cells of the colon (colon-26 : Gan Kenkyu-kai, Gan Kenkyu-sho) Table 1

[3] = tested on: U937 (human leukemia ); assay: Cytotoxity of acetylgliotoxin by the MTT method; format: cell-based; conditions: U-937, U937, 72 hours
Protocol: as §1, §2

[4] = tested on: mouse carcinoma of the colon cells colon 26; assay: Anticancer effect in vivo against colon 26 (Example 9 A); conditions: CDFI mice
Protocol: • (A) Evaluationin vivo using mouse carcinoma of the colon cells colon 26 CDFI mice (female : 4 weks age) were bought, and colon 26 subcultured in the subcutaneous tissue of the mouse was taken out, and cut into small pieces by a scissors. The cancer cells were transplanted into subcutaneous tisue of CDFI mice by a trucker. The day was assigned 0 day, and the tumor was measured by a slide caliper after 7 days. The volume of the tumor was calculated, and divided into groups (each group : n = 4). The text compound was dissolved in dimethylsulfoxide, and diluted with 5 % Tween 80- saline aqueous solution. […] The administration was carried out after 7 days, after 11 days and after 15 days or after 7 days and after 8 days from the transplantation at a rate of once per one day. 21st day from the transplantation, the volume of tumor was measured and the volume of tumor and the inhibition against tumor multiplication rate (I.R.) were calculated. The volume of tumor was calculated by the following formula. (Tumore Volume [mm)^3 (]= Minor Axis [mm])^2 × Major Axis [mm] × (1/2) [formula] • The inhibition against tumor multiplication rate (I.R.) was calculated by the following formula. I.R. [%] = {1- (Average Tumor Volume of Administration Group / Average Tumor Volume of Control Group)) × 100 [formula] • (B) Evaluation in vivo using human carcinoma of the colon cells HCT-116 Balb/c nu/nu mice (female : 5 weks age) were bought, and HCT-116 (Dainippon Seiyaku) subcultured in the subcutaneous tissue of the mouse was taken out, and cut into small pieces by a scissors. The cancer cells were transplanted into subcutaneous tissue of […] mice by a trucker. The day was assigned 0 day, and the tumor was measured by a slide caliper after 7 days. The volume of the tumor was calculated, and divided into groups (each group : n = 2). The text compound was dissolved in dimethylsulfoxide, and diluted with 5 % Tween 80- saline aqueous solution. […] The administration was carried out after 7 days, after 11 days and after 15 days from the transplantation at a rate of once per one day. 21st day from the transplantation, the volume of tumor was measured and the volume of tumor and the inhibition against tumor multiplication rate (I.R.) were calculated by the above formulas.

[5] = Solubility of the isolated active component; format: physicochemical
Protocol: After cultivation by the above method was finished, an equal amount (3 L) of acetone was added to the 3 L culture solution, and extraction was carried out at room temperature for 30 minutes. Acetone was removed from the acetone-containing cultuer solution by an evaporator, and solvent extraction with ethyl acetate was carried out by a separating funnel. The solvent extract was dehydrated by sodium sulfate, and then, evaporated by an evaporator to dryness under reduced poressure to obtain 470 mg of the extract. Subsequently, the extract was adsorbed on a silica gel column, washed with toluene, and active fractions were eluted by toluene/ethyl acetate (8:2). The eluate was concentrated by an evaporator under reduced pressure to obtain 42 mg. The crude matters were subjected to high speed liquid chromatography ("Capsel-Pak C18", Shiseido, solvent: water:acetonitrile = 72:28), and a pure active substance was obtained by isochromatic elution. […] Ultraviolet absorption spectra end 266 nm (water: acetonitrile = 60 : 40) Molecular weight: 368 Thin layer chromatography: Absorbent; HPTLC Kieselgel 60 F 254 (MERK) Developing solvent: hexane : ethyl acetate = 6 : 4 R f value; 0.233 High speed liquid chromatogaphy: Used apparatus; UV detector : Waters 996 (Waters) Pump: HITACHI L―6200 (Hitachi Ltd.) Column: Reversed phase high speed liquid chromatography column for analysis (CAPCELL PAK C18 UG120 5 µ m 4.6 mm ⌀ × 250 mm (Shiseido) Solvent for elution; 30-100 % acetonitrile (linear grudient 20 minutes) Flow rate; 0.8 mL/min Retention time; about 10.5 minutes • Chemical shift values (cf. Fig. 1) in ^1H nuclear magnetic resonance spectra • ^1H―NMR (CDCl3) δ :5.97―6.04 (3H, m), 5.57 (1H, d), 5.02 (1H, d), 4.31 (1H, dd), 4.19 (1H, dd), 3.74 (1H, d), 3.44 (1H, dd), 3.17 (3H, s), 2.96 (1H, d), 2.14 (3H, s) • FAB MASS : 369 (MH^+) • Chemical shift values (cf. Fig. 2) in ^13C nuclear magnetic resonance spectra (600 MH3, CDCL3)

[6] = 2.5[mg/kg]×3 (i.p.), 7,11,15th days
[7] = 5 [mg/kg]×3 (i.p.), 7,11,15th days
[8] = 10 [mg/kg]×2 (i.p.), 7,8th days

SMILES: CC(=O)OC1C=CC=C2CC34SSC(CO)(C(=O)N3C21)N(C)C4=O (stereo not drawn) [acetylgliotoxin]
- apoptosis (cell death) -inducing ability [1]: apoptosis (cell death) -inducing ability
- IC50 [2]: 5.8 ng/mL (≈ 0.0157 µM)
- IC50 [3]: 14 ng/mL (≈ 0.038 µM)
- I.R. (21st day) [4, 6]: 19.6%
- I.R.Max [4, 6]: 44.9%
- I.R. (21st day) [4, 7]: 11.8%
- I.R.Max [4, 7]: 56.8%
- I.R. (21st day) [4, 8]: 26.0%
- I.R.Max [4, 8]: 68.8%
- Solubility ([5]; in chloroform and dimethyl sulfoxide): Easily soluble
- Solubility ([5]; in ethyl acetate, acetonitrile, toluene, methanol and acetone): soluble
- Solubility ([5]; in water): slightly soluble
